In patent US20260285850A1, “SUBSTITUTED OXAZOLIDINONES AND IMIDAZOLINONES AS HERBICIDES” (FMC CORPORATION, priority 2023, published 2026):

Assays:
Assay type in all cases: in vivo
[1] = test system: green foxtail (Setaria viridis); assay: Test A preemergence soil spray, visual injury rating 0-100; details: 10 days, 0 = no effect, 100 = complete control
Method in brief: (§1)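 Compound in a non-phytotoxic, surfactant-containing solvent is applied either as a directed soil spray before seedlings emerge or onto emerged plants 2-10 cm tall; pots hold a loam-sand blend. Plants grow 10 days under greenhouse conditions and are rated by eye against untreated controls (0 no effect, 100 complete control).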

corn (Zea mays) [2] = assay: as above; details: 10 days, 0 = no effect, 100 = complete control
Method in brief: as §1

kochia (Bassia scoparia) [3] = assay: as above; details: 10 days, 0 = no effect, 100 = complete control
Method in brief: as §1

[4] = test system: wheat (Triticum aestivum); assay: as above; details: 10 days, 0 = no effect, 100 = complete control
Method in brief: as §1

soybean (Glycine max) [5] = assay: as above; details: 10 days, 0 = no effect, 100 = complete control
Method in brief: as §1

[6] = test system: barnyardgrass (Echinochloa crus-galli); assay: as above; details: 10 days, 0 = no effect, 100 = complete control
Method in brief: as §1

[7] = test system: blackgrass (Alopecurus myosuroides); assay: as above; details: 10 days, 0 = no effect, 100 = complete control
Method in brief: as §1

[8] = test system: oat, wild (wild oat, Avena fatua); assay: as above; details: 10 days, 0 = no effect, 100 = complete control
Method in brief: as §1

[9] = test system: ryegrass, Italian (italian ryegrass, Lolium multiflorum); assay: as above; details: 10 days, 0 = no effect, 100 = complete control
Method in brief: as §1

[10] = test system: palmer (palmer amaranth, palmer pigweed, Amaranthus palmeri); assay: as above; details: 10 days, 0 = no effect, 100 = complete control
Method in brief: as §1

[11] = test system: ragweed (common ragweed, Ambrosia artemisiifolia); assay: as above; details: 10 days, 0 = no effect, 100 = complete control
Method in brief: as §1

[12] = test system: green foxtail (Setaria viridis); assay: Test A postemergence application, visual injury rating 0-100; details: 10 days
Method in brief: as §1

corn (Zea mays) [13] = assay: as above; details: 10 days
Method in brief: as §1

kochia (Bassia scoparia) [14] = assay: as above; details: 10 days
Method in brief: as §1

[15] = test system: wheat (Triticum aestivum); assay: as above; details: 10 days
Method in brief: as §1

soybean (Glycine max) [16] = assay: as above; details: 10 days
Method in brief: as §1

[17] = test system: barnyardgrass (Echinochloa crus-galli); assay: as above; details: 10 days
Method in brief: as §1

[18] = test system: blackgrass (Alopecurus myosuroides); assay: as above; details: 10 days
Method in brief: as §1

[19] = test system: oat, wild (wild oat, Avena fatua); assay: as above; details: 10 days
Method in brief: as §1

[20] = test system: horseweed (Erigeron canadensis); assay: as above; details: 10 days
Method in brief: as §1

[21] = test system: ryegrass, Italian (italian ryegrass, Lolium multiflorum); assay: as above; details: 10 days
Method in brief: as §1

[22] = test system: palmer (palmer amaranth, palmer pigweed, Amaranthus palmeri); assay: as above; details: 10 days
Method in brief: as §1

[23] = test system: ragweed (common ragweed, Ambrosia artemisiifolia); assay: as above; details: 10 days
Method in brief: as §1

[24] = test system: galium (catchweed bedstraw, Galium aparine); assay: as above; details: 10 days
Method in brief: as §1

[25] = test system: barnyardgrass (Echinochloa crusgalli); assay: Test B flooded paddy test, visual plant response rating 0-100; details: 250 g ai/ha, Flood, applied to paddy water, evaluated after 13 days
Method in brief: (§2)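 Treatment occurs at the 2-leaf stage by adding compound to floodwater standing 3 cm above the soil, a level kept for the whole test. Plants stay in the greenhouse 13 days before visual comparison with controls.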

[26] = test system: sedge, umbrella (small-flower umbrella sedge, Cyperus difformis); assay: as above; details: 250 g ai/ha, Flood, applied to paddy water, evaluated after 13 days
Method in brief: as §2

rice (Oryza sativa) = assay: as above; details: 250 g ai/ha, Flood, applied to paddy water, evaluated after 13 days
Method in brief: as §2

[27] = test system: ducksalad (Heteranthera limosa); assay: as above; details: 250 g ai/ha, Flood, applied to paddy water, evaluated after 13 days
Method in brief: as §2

[28] = 31 g ai/ha, postemergence, 0 = no effect, 100 = complete control
[29] = Postemergence, 125 g ai/ha, 0 is no effect, 100 is complete control

COC(=O)C1=CCC(NC(=O)C2(C)CN(c3cc(F)cc(F)c3)C(=O)O2)C1 (stereo not shown) [Compound 21]
20: Horseweed plant response rating (0-100) [20, 28]
100: Foxtail, Green plant response rating (0 to 100 scale) ([1]; 125 g ai/ha) | Barnyardgrass plant response rating (0 to 100 scale) ([6]; 125 g ai/ha) | Amaranth, Palmer plant response rating (0 to 100 scale) ([10]; 125 g ai/ha) | Corn plant response rating (0-100) (corn (Zea mays) [13]; [28]) | Corn plant response rating (0 to 100 scale) (corn (Zea mays) [13]; [29]) | Barnyardgrass plant response rating (0-100) [17, 28] | Barnyardgrass plant response rating (0 to 100 scale) [17, 29] | Blackgrass plant response rating (0 to 100 scale) [18, 29] | Oat, Wild plant response rating (0 to 100 scale) [19, 29]
30: Ragweed plant response rating (0-100) ([11]; 31 g ai/ha) | Ragweed plant response rating (0 to 100 scale) ([11]; 125 g ai/ha)
60: Corn plant response rating (0-100) (corn (Zea mays) [2]; 31 g ai/ha) | Oat, Wild plant response rating (0-100) ([8]; 31 g ai/ha) | Amaranth, Palmer plant response rating (0-100) [22, 28]
70: Horseweed plant response rating (0 to 100 scale) [20, 29] | Ragweed plant response rating (0 to 100 scale) [23, 29]
95: Plant response rating, Sedge, Umbrella (0 to 100 scale, 0 is no effect and 100 is complete control) [26]
90: Foxtail, Green plant response rating (0-100) ([1]; 31 g ai/ha) | Corn plant response rating (0 to 100 scale) (corn (Zea mays) [2]; 125 g ai/ha) | Kochia plant response rating (0 to 100 scale) (kochia (Bassia scoparia) [3]; 125 g ai/ha) | Wheat plant response rating (0 to 100 scale) ([4]; 125 g ai/ha) | Blackgrass plant response rating (0 to 100 scale) ([7]; 125 g ai/ha) | Ryegrass, Italian plant response rating (0 to 100 scale) ([9]; 125 g ai/ha) | Foxtail, Green plant response rating (0-100) [12, 28] | Foxtail, Green plant response rating (0 to 100 scale) [12, 29] | Wheat plant response rating (0-100) [15, 28] | Wheat plant response rating (0 to 100 scale) [15, 29] | Soybean plant response rating (0 to 100 scale) (soybean (Glycine max) [16]; [29]) | Blackgrass plant response rating (0-100) [18, 28] | Oat, Wild plant response rating (0-100) [19, 28] | Ryegrass, Italian plant response rating (0-100) [21, 28] | Amaranth, Palmer / Pigweed, Palmer plant response rating (0 to 100 scale) [22, 29] | Plant response rating, Barnyardgrass (0 to 100 scale, 0 is no effect and 100 is complete control) [25] | Plant response rating, Rice (0 to 100 scale, 0 is no effect and 100 is complete control) (rice (Oryza sativa)) | Plant response rating, Ducksalad (0 to 100 scale, 0 is no effect and 100 is complete control) [27]
50: Soybean plant response rating (0-100) (soybean (Glycine max) [5]; 31 g ai/ha) | Barnyardgrass plant response rating (0-100) ([6]; 31 g ai/ha) | Ryegrass, Italian plant response rating (0-100) ([9]; 31 g ai/ha)
80: Wheat plant response rating (0-100) ([4]; 31 g ai/ha) | Soybean plant response rating (0 to 100 scale) (soybean (Glycine max) [5]; 125 g ai/ha) | Oat, Wild plant response rating (0 to 100 scale) ([8]; 125 g ai/ha) | Kochia plant response rating (0-100) (kochia (Bassia scoparia) [14]; [28]) | Kochia plant response rating (0 to 100 scale) (kochia (Bassia scoparia) [14]; [29]) | Soybean plant response rating (0-100) (soybean (Glycine max) [16]; [28]) | Galium plant response rating (0-100) [24, 28] | Galium plant response rating (0 to 100 scale) [24, 29]
0: Kochia plant response rating (0-100) (kochia (Bassia scoparia) [3]; 31 g ai/ha) | Blackgrass plant response rating (0-100) ([7]; 31 g ai/ha)
40: Amaranth, Palmer plant response rating (0-100) ([10]; 31 g ai/ha) | Ryegrass, Italian plant response rating (0 to 100 scale) [21, 29] | Ragweed plant response rating (0-100) [23, 28]
